Reference: PMC8863796 (Communications Biology, 2022)

Legend:
[1] = target: T1, SARS-CoV-2 RdRp complex (nsp12/nsp7/nsp8) (Severe acute respiratory syndrome coronavirus 2, UniProt P0DTD1); test: Extension reactions of RNA template-loop-primers with nucleotide analogue triphosphates; assay type: biochemical; conditions: single-base extension of RNA template-loop-primers
T1 construct: made in house
Protocol: In total, 10 µL of 10 µM RNA template-loop-primers (5′-[…]-3′ for RDV-TP extension; 5′-[…]-3′ for SOF-TP extension) in 1 × RdRp reaction buffer was annealed by heating to 75 °C for 3 min and cooling to room temperature. In all, 5 µL of 8 µM RdRp complex (nsp12/nsp7/nsp8)[11],[20] in 1× reaction buffer was added to the annealed RNA template-loop-primer solution and incubated for an additional 10 min at room temperature. Finally, 5 µL of a solution containing 0.2 mM RDV-TP or 2 mM SOF-TP in 1× reaction buffer was added, and incubation was carried out for 2 h at 30 °C. The final concentrations of reagents in the 20 µL extension reactions were 2 µM nsp12/nsp7/nsp8, 5 µM RNA template-loop-primer, 50 µM RDV-TP, and 500 µM SOF-TP. The 1× reaction buffer contains the following reagents: 10 mM Tris-HCl pH 8, 10 mM KCl, 2 mM MgCl2 and 1 mM β-mercaptoethanol. Desalting of the reaction mixture was performed with an Oligo Clean & Concentrator kit (Zymo Research) resulting in ~10 µL purified aqueous RNA solutions. 1 µL of each solution was subjected to MALDI-TOF MS (Bruker ultrafleXtreme) analysis. The remaining ~9 µL extended template-loop-primer solutions were used to test exonuclease activity.
The RNA template-loop primer (5′-[…]-3′) was annealed at 75 °C for 3 min and cooled to room temperature for 25 min in 1× ThermoPol buffer before adding the other ingredients. The final 20 µL mixture containing 5 µM of the RNA template-loop primer, 250 µM, 500 µM or 1 mM AT-9010, 2 mM MnCl2 and 0.2 unit Therminator II in 1× ThermoPol buffer was incubated in a thermal cycler using the following protocol (28 cycles of 45 °C for 30 s, 55 °C for 30 s, 65 °C for 30 s). Desalting of the reaction mixture was performed with an Oligo Clean & Concentrator kit (Zymo Research) resulting in ~10 µL purified aqueous RNA solutions. 1 µL of each solution was subjected to MALDI-TOF MS (Bruker ultrafleXtreme) analysis. The remaining ~9 µL extended template-loop-primer solutions were used to test exonuclease activity. […]

[2] = target: SARS-CoV-2 exonuclease complex (nsp14/nsp10) (Severe acute respiratory syndrome coronavirus 2, UniProt P0DTD1); set-up: method as in earlier work; conditions: previously demonstrated; cited from earlier work

C[C@@]1(F)[C@H](O)[C@@H](COP(=O)(O)OP(=O)(O)OP(=O)(O)O)O[C@H]1n1cnc2c(=O)[nH]c(N)nc21 [AT-9010, 2’-fluoro-2’-methyl guanosine-5’-triphosphate]
incorporation into RNA (template base opposite) [1]: incorporated opposite C

COC[C@H]1C[C@@H](c2nc(-c3ccc4c(c3)COc3cc5c(ccc6nc([C@@H]7CC[C@H](C)N7C(=O)[C@@H](NC(=O)OC)C(C)C)[nH]c65)cc3-4)c[nH]2)N(C(=O)[C@H](NC(=O)OC)c2ccccc2)C1 [Velpatasvir]
inhibition of SARS-CoV-2 exonuclease [2]: can inhibit the SARS-CoV-2 exonuclease

O=c1nc(NO)ccn1[C@@H]1O[C@H](COP(=O)(O)OP(=O)(O)OP(=O)(O)O)[C@@H](O)[C@H]1O [NHC-TP, N^4-hydroxycytidine-5’-triphosphate]
incorporation into RNA (template base opposite) [1]: incorporated opposite A or G

NC(=O)c1nc(F)cn([C@@H]2O[C@H](COP(=O)(O)OP(=O)(O)OP(=O)(O)O)[C@@H](O)[C@H]2O)c1=O [Favipiravir-RTP, Favipiravir-ribofuranosyl-5’-triphosphate]
incorporation into RNA (template base opposite) [1]: incorporated into RNA opposite C or U
